Laboratory results from US8299065B2, “Antibacterial condensed thiazoles” (Biota Europe Ltd., priority 2007, dated 2012).
≈ marks a conversion by molar mass, not a printed value.

The compounds below were run on Enterococcus faecalis ATCC 29212 (assay: MIC testing against Enterococcus faecalis ATCC 29212). Details: ATCC29212, read-out: MICs against Enterococcus faecalis, Activity.
Assay type: cell-based
Experimental: Minimum Inhibitory Concentration (MIC) Testing Compounds of this invention were tested for antimicrobial activity by susceptibility testing in liquid or on solid media. MICs for compounds against each strain were determined by the broth microdilution or agar dilution method according to the guidelines of the Clinical Laboratories and Standards Institute, formerly the National Committee for Clinical Laboratory Standards (Clinical Laboratories and Standards Institute. Methods for Dilution Antimicrobial Susceptibility Tests for Bacteria That Grow Aerobically; Approved Standard—Seventh Edition. Document M7-A7. CLSI, Wayne, Pa., 2006; Clinical Laboratories and Standards Institute. Methods for Antimicrobial Susceptibility Testing of Anaerobic Bacteria; Approved Standard—Sixth Edition. Document M11-A6. CLSI, Wayne, Pa., 2004).

First: CCNC(=O)Nc1nc2cc(-c3ccc(CN4CCOCC4)nc3)c(F)cc2s1 [Example 66, 1-ethyl-3-(6-fluoro-5-(6-(morpholinomethyl)pyridin-3-yl)benzo[d]thiazol-2-yl)urea]
Second: CCNC(=O)Nc1nc2cc(-c3ccn(CCN4CCOCC4)c(=O)c3)c(F)cc2s1 [Example 62, 1-ethyl-3-(6-fluoro-5-(1-(2-morpholinoethyl)-2-oxo-1,2-dihydropyridin-4-yl)benzo[d]thiazol-2-yl)urea]
The MIC of the first is higher: 2 to 16 µg/mL (≈ 4.81 to 38.5 µM) for the first, 0.25 to 1 µg/mL (≈ 0.561 to 2.24 µM) for the second.

`CCNC(=O)Nc1nc2cc(-c3cc[nH]c(=O)c3)ccc2s1` [Example 29, 1-ethyl-3-(5-(2-oxo-1,2-dihydropyridin-4-yl)benzo[d]thiazol-2-yl)urea] and `CCNC(=O)Nc1nc2cc(-c3cc[nH]n3)ccc2s1` [Example 17, 1-(5-(1H-pyrazol-3-yl)benzo[d]thiazol-2-yl)-3-ethylurea] fall in the same range of MIC: 2 to 16 µg/mL (≈ 6.36 to 50.9 µM) for the first, 2 to 16 µg/mL (≈ 6.96 to 55.7 µM) for the second.

`CCNC(=O)Nc1nc2cc(-c3ccc4nncn4c3)ccc2s1` [Example 5, 1-(5-([1,2,4]triazolo[4,3-a]pyridin-6-yl)benzo[d]thiazol-2-yl)-3-ethylurea] and `CCNC(=O)Nc1nc2cc(-c3ccc4nccn4c3)ccc2s1` [Example 6, 1-ethyl-3-(5-(imidazo[1,2-a]pyridin-6-yl)benzo[d]thiazol-2-yl)urea] fall in the same range of MIC: 2 to 16 µg/mL (≈ 5.91 to 47.3 µM) for the first, 2 to 16 µg/mL (≈ 5.93 to 47.4 µM) for the second.

`CCNC(=O)Nc1nc2cc(-c3cncc(O)c3)c(F)cc2s1` [Example 59, 1-ethyl-3-(6-fluoro-5-(5-hydroxypyridin-3-yl)benzo[d]thiazol-2-yl)urea] and `CCNC(=O)Nc1nc2cc(-c3cncc(OC)c3)c(F)cc2s1` [Example 58, 1-ethyl-3-(6-fluoro-5-(5-methoxypyridin-3-yl)benzo[d]thiazol-2-yl)urea] fall in the same range of MIC: 0.25 to 1 µg/mL (≈ 0.752 to 3.01 µM) for the first, 0.25 to 1 µg/mL (≈ 0.722 to 2.89 µM) for the second.

`CCNC(=O)Nc1nc2cc(-c3cc(C)n(CC4CCCCN4C)c(=O)c3)c(F)cc2s1` (stereo not drawn) [Example 51, 1-ethyl-3-(6-fluoro-5-(6-methyl-1-((1-methylpiperidin-2-yl)methyl)-2-oxo-1,2-dihydropyridin-4-yl)benzo[d]thiazol-2-yl)urea] and `CCNC(=O)Nc1nc2cc(-c3cc(C)n(CC4CCN(C)C4)c(=O)c3)c(F)cc2s1` (stereo not drawn) [Example 50, 1-ethyl-3-(6-fluoro-5-(6-methyl-1-((1-methylpyrrolidin-3-yl)methyl)-2-oxo-1,2-dihydropyridin-4-yl)benzo[d]thiazol-2-yl)urea] fall in the same range of MIC: 2 to 16 µg/mL (≈ 4.37 to 35 µM) for the first, 2 to 16 µg/mL (≈ 4.51 to 36.1 µM) for the second.

`CCNC(=O)Nc1nc2cc(-c3cnn(CCN4CCOCC4)c3)ccc2s1` [Example 16, 1-ethyl-3-(5-(1-(2-morpholinoethyl)-1H-pyrazol-4-yl)benzo[d]thiazol-2-yl)urea] and `CCNC(=O)Nc1nc2cc(-c3ccc(N4CCOCC4)nc3)ccc2s1` [Example 27, 1-ethyl-3-(5-(6-morpholinopyridin-3-yl)benzo[d]thiazol-2-yl)urea] fall in the same range of MIC: 2 to 16 µg/mL (≈ 4.99 to 39.9 µM) for the first, 2 to 16 µg/mL (≈ 5.22 to 41.7 µM) for the second.

Compared with `CCNC(=O)Nc1nc2cc(-c3cnc4ccccn34)ccc2s1` [Example 24, 1-ethyl-3-(5-(imidazo[1,2-a]pyridin-3-yl)benzo[d]thiazol-2-yl)urea], `CCNC(=O)Nc1nc2cc(-c3cccnc3)ccc2s1` [Example 1, 1-Ethyl-3-(5-pyridin-3-yl-benzothiazol-2-yl)-urea] is lower in MIC: 2 to 16 µg/mL (≈ 5.93 to 47.4 µM) for the first, 0.25 to 1 µg/mL (≈ 0.838 to 3.35 µM) for the second.

`CCNC(=O)Nc1nc2cc(-c3cc(C)oc(=O)c3)cnc2s1` [Example 77, 1-ethyl-3-(6-(6-methyl-2-oxo-2H-pyran-4-yl)thiazolo[5,4-b]pyridin-2-yl)urea] and `CCNC(=O)Nc1nc2cc(-c3cc(C)oc(=O)c3)ccc2s1` [Example 14, 1-ethyl-3-(5-(6-methyl-2-oxo-2H-pyran-4-yl)benzo[d]thiazol-2-yl)urea] fall in the same range of MIC: 2 to 16 µg/mL (≈ 6.05 to 48.4 µM) for the first, 2 to 16 µg/mL (≈ 6.07 to 48.6 µM) for the second.

First: CCNC(=O)Nc1nc2cc(-c3cc(C)n(CC4CCCN4C(=O)OC(C)(C)C)c(=O)c3)c(F)cc2s1 (stereo not drawn) [Example 53, tert-butyl 2-((4-(2-(3-ethylureido)-6-fluorobenzo[d]thiazol-5-yl)-6-methyl-2-oxopyridin-1(2H)-yl)methyl)pyrrolidine-1-carboxylate]
Second: CCNC(=O)Nc1nc2cc(-c3cc(C)n(Cc4cn(C)cn4)c(=O)c3)c(F)cc2s1 [Example 52, 1-ethyl-3-(6-fluoro-5-(6-methyl-1-((1-methyl-1H-imidazol-4-yl)methyl)-2-oxo-1,2-dihydropyridin-4-yl)benzo[d]thiazol-2-yl)urea]
The MIC of the first is higher: 2 to 16 µg/mL (≈ 3.78 to 30.2 µM) for the first, 0.25 to 1 µg/mL (≈ 0.568 to 2.27 µM) for the second.

Compared with `CCNC(=O)Nc1nc2cc(-c3cnn(CC(=O)OCC)c3)c(F)cc2s1` [Example 39, ethyl 2-(4-(2-(3-ethylureido)-6-fluorobenzo[d]thiazol-5-yl)-1H-pyrazol-1-yl)acetate], `CCNC(=O)Nc1nc2cc(-c3cc(C)oc(=O)c3)c(F)cc2s1` [Example 40, 1-ethyl-3-(6-fluoro-5-(6-methyl-2-oxo-2H-pyran-4-yl)benzo[d]thiazol-2-yl)urea] is lower in MIC: 2 to 16 µg/mL (≈ 5.11 to 40.9 µM) for the first, 0.25 to 1 µg/mL (≈ 0.72 to 2.88 µM) for the second.

`CCNC(=O)Nc1nc2cc(-c3cc(C)n(C(C)c4ccc(C)nc4)c(=O)c3)c(F)cc2s1` (stereo not drawn) [Example 78, 1-ethyl-3-(6-fluoro-5-{6-methyl-1-[1-(6-methyl-pyridin-3-yl)-ethyl]-2-oxo-1,2-dihydro-pyridin-4-yl}-benzothiazol-2-yl)-urea] and `CCNC(=O)Nc1nc2cc(-c3ccc(-c4noc(C)n4)nc3)c(F)cc2s1` [Example 55, 1-ethyl-3-(6-fluoro-5-(6-(5-methyl-1,2,4-oxadiazol-3-yl)pyridin-3-yl)benzo[d]thiazol-2-yl)urea] fall in the same range of MIC: 0.25 to 1 µg/mL (≈ 0.537 to 2.15 µM) for the first, 0.25 to 1 µg/mL (≈ 0.627 to 2.51 µM) for the second.

`CCNC(=O)Nc1nc2cc(-c3cccnc3)c(C)cc2s1` [Example 73, 1-ethyl-3-(6-methyl-5-(pyridin-3-yl)benzo[d]thiazol-2-yl)urea] and `CCNC(=O)Nc1nc2cc(-c3cccnc3)cnc2s1` [Example 75, 1-ethyl-3-(6-(pyridin-3-yl)thiazolo[5,4-b]pyridin-2-yl)urea] fall in the same range of MIC: 2 to 16 µg/mL (≈ 6.4 to 51.2 µM) for the first, 2 to 16 µg/mL (≈ 6.68 to 53.4 µM) for the second.

First: CCNC(=O)Nc1nc2cc(-c3ccc4ncnn4c3)ccc2s1 [Example 25, 1-(5-([1,2,4]triazolo[1,5-a]pyridin-6-yl)benzo[d]thiazol-2-yl)-3-ethylurea]
Second: CCNC(=O)Nc1nc2cc(-c3ccc(CO)nc3)ccc2s1 [Example 9, 1-ethyl-3-(5-(6-(hydroxymethyl)pyridin-3-yl)benzo[d]thiazol-2-yl)urea]
The MIC of the first is lower: 0.25 to 1 µg/mL (≈ 0.739 to 2.96 µM) for the first, 2 to 16 µg/mL (≈ 6.09 to 48.7 µM) for the second.

Compared with `CCNC(=O)Nc1nc2cc(-c3ccc(NC(C)=O)nc3)ccc2s1` [Example 26, N-(5-(2-(3-ethylureido)benzo[d]thiazol-5-yl)pyridin-2-yl)acetamide], `CCNC(=O)Nc1nc2cc(-c3ccc(-c4nnn(C)n4)nc3)ccc2s1` [Example 30, 1-ethyl-3-(5-(6-(2-methyl-2H-tetrazol-5-yl)pyridin-3-yl)benzo[d]thiazol-2-yl)urea] is lower in MIC: 2 to 16 µg/mL (≈ 5.63 to 45 µM) for the first, 0.25 to 1 µg/mL (≈ 0.657 to 2.63 µM) for the second.

First: CCNC(=O)Nc1nc2cc(-c3ccn(C)c(=O)c3)c(OC)cc2s1 [Example 72, 1-ethyl-3-(6-methoxy-5-(1-methyl-2-oxo-1,2-dihydropyridin-4-yl)benzo[d]thiazol-2-yl)urea]
Second: CCNC(=O)Nc1nc2cc(-c3cc(C)n(CCO)c(=O)c3)ccc2s1 [Example 32, 1-ethyl-3-(5-(1-(2-hydroxyethyl)-6-methyl-2-oxo-1,2-dihydropyridin-4-yl)benzo[d]thiazol-2-yl)urea]
The MIC of the first is lower: 0.25 to 1 µg/mL (≈ 0.697 to 2.79 µM) for the first, 2 to 16 µg/mL (≈ 5.37 to 43 µM) for the second.

`CCNC(=O)Nc1nc2cc(-c3cnc(OC)s3)ccc2s1` [Example 22, 1-ethyl-3-(5-(2-methoxythiazol-5-yl)benzo[d]thiazol-2-yl)urea] and `CCNC(=O)Nc1nc2cc(-c3cnc4c(c3)OCCN4)ccc2s1` [Example 8, 1-(5-(3,4-dihydro-2H-pyrido[3,2-b][1,4]oxazin-7-yl)benzo[d]thiazol-2-yl)-3-ethylurea] fall in the same range of MIC: 2 to 16 µg/mL (≈ 5.98 to 47.8 µM) for the first, 2 to 16 µg/mL (≈ 5.63 to 45 µM) for the second.

Compared with `CCNC(=O)Nc1nc2cc(-c3cnc(N4CCCC(C(=O)O)C4)nc3)c(F)cc2s1` (stereo not drawn) [Example 46, 1-(5-(2-(3-ethylureido)-6-fluorobenzo[d]thiazol-5-yl)pyrimidin-2-yl)piperidine-3-carboxylic acid], `CCNC(=O)Nc1nc2cc(-c3cnc(N4CCNCC4)nc3)c(F)cc2s1.Cl` [Example 42, 1-ethyl-3-(6-fluoro-5-(2-(piperazin-1-yl)pyrimidin-5-yl)benzo[d]thiazol-2-yl)urea hydrochloride salt] is higher in MIC: 0.25 to 1 µg/mL (≈ 0.562 to 2.25 µM) for the first, 2 to 16 µg/mL for the second.

`CCNC(=O)Nc1nc2cc(-c3ccc(=O)n(CCOCC)c3)ccc2s1` [Example 13, 1-(5-(1-(2-ethoxyethyl)-6-oxo-1,6-dihydropyridin-3-yl)benzo[d]thiazol-2-yl)-3-ethylurea] and `CCNC(=O)Nc1nc2cc(-c3cnc(N4CCN(C)CC4)nc3)c(F)cc2s1` [Example 57, 1-ethyl-3-(6-fluoro-5-(2-(4-methylpiperazin-1-yl)pyrimidin-5-yl)benzo[d]thiazol-2-yl)urea] fall in the same range of MIC: 2 to 16 µg/mL (≈ 5.17 to 41.4 µM) for the first, 2 to 16 µg/mL (≈ 4.81 to 38.5 µM) for the second.
